Legend:
[1] = Permeability in CALU-3 cells; type: in vitro ADME; details: human, CALU-3 monolayers, pH 7.4, 37° C., 10 μM compound
Procedure: Permeability in CALU-3 Cells:
Permeability measurements across polarized, confluent CALU-3 cell monolayers grown on permeable filter supports are used to provide information on the potential of a compound to pass the lung epithelium.
CALU-3 cells (1-2×10^5 cells/l cm^2 area) are seeded on filter inserts (Costar transwell polycarbonate filters, 0.4 μm pore size) and cultured (for 10-12 days DMEM) until tight monolayers are formed. Compounds of interest are dissolved in appropriate solvent (DMSO, 10 mM stock solution). […] The transport solution (TL) is applied to the apical or basolateral donor side for measuring A-B or B-A permeability (3 filter replicates), respectively. The receiver side contains the same buffer as the donor side. After 30 min of accommodation, samples are collected at the start t0=0 min and at the end of the experiment tn=90 min from the donor and at 0, 30, 60, and 90 min also from the receiver chamber. Volume removed is […] by HTP-4 buffer. The compound concentration in the samples is measured by HPLC-MS/MS or scintillation counting. The permeability coefficient (Papp) and efflux ratio are calculated according to: Papp [cm/s]=(concentration receiver [nM]*volume receiver [mL]/time interval [sec])*(1/filter area)*(1/donor concentration [nM]).

[2] = target: T1, ENaC (Epithelial Sodium Channel), Mouse kidney M-1 cells (Mus musculus, UniProt Q61180+Q9WU38+Q9WU39); assay: Ussing Chamber assay: inhibition of amiloride sensitive short circuit current in M-1 cells; type: cell-based; details: apical application, 37° C.
T1 construct: Mouse kidney M-1 cells were cultivated in DMEM containing 5% FCS and 5 μM dexamethasone; endogenous in cells; host or cells: Mouse kidney M-1 cells (polarised on transwell filters, dexamethasone-treated)
T1 sequence (Q61180 1-699): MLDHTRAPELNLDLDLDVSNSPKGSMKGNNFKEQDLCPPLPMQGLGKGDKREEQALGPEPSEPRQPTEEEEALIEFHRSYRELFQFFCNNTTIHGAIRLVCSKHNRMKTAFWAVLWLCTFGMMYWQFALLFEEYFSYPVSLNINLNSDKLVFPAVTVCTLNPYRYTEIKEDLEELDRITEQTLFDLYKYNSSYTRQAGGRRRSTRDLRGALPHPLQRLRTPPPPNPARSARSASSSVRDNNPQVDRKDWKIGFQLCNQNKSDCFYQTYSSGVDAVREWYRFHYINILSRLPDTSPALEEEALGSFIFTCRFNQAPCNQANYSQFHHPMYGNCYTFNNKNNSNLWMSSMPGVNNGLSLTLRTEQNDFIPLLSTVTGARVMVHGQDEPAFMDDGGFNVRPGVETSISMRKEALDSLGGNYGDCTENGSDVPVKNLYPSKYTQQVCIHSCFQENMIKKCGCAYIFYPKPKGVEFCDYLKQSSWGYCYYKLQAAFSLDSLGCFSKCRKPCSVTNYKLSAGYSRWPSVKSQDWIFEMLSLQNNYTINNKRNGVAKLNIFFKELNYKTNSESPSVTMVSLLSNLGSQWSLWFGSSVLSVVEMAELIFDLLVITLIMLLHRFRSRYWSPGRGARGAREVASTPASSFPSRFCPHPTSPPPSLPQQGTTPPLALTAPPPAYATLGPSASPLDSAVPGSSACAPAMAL
T1 sequence (Q9WU38 1-638): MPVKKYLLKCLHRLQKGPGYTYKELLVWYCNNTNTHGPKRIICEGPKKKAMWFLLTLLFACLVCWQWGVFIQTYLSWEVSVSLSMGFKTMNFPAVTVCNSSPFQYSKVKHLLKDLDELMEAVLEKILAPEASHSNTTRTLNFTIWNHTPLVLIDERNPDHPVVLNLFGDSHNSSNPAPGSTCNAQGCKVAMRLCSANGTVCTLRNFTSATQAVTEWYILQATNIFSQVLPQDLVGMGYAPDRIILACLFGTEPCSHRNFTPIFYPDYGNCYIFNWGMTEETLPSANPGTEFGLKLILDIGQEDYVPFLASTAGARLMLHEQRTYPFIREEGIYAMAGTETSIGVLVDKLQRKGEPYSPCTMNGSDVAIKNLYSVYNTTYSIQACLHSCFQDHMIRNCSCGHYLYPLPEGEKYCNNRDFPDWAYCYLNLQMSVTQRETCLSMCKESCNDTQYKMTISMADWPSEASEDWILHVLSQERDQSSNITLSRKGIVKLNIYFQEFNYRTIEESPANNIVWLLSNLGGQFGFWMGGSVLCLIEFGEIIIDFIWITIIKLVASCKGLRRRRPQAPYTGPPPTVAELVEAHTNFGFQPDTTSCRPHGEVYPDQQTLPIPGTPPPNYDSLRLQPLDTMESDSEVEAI
T1 sequence (Q9WU39 1-655): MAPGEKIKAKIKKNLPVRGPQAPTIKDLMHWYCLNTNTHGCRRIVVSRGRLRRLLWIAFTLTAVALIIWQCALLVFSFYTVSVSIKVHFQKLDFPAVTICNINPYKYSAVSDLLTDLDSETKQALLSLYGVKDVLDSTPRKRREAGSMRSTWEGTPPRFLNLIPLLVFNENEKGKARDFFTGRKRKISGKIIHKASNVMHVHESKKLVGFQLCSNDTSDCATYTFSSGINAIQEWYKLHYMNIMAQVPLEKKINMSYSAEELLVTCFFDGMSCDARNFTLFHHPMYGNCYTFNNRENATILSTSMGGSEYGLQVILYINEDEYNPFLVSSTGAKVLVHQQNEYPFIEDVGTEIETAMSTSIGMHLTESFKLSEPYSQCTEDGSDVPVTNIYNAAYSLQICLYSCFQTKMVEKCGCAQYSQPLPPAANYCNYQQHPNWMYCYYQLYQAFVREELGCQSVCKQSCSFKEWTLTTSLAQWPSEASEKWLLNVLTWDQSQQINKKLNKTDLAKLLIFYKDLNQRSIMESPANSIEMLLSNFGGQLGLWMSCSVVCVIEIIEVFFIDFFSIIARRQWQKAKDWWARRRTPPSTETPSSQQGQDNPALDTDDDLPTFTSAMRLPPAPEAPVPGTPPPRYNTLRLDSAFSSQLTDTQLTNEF
Procedure: Ussing Chamber: Mouse kidney M-1 cells were cultivated in DMEM containing 5% FCS and 5 μM dexamethasone for 10 to 12 days on polyester transwell filters. Filters were inserted into a teflon-coated well-plate which fit into the ussing chamber system. Prior to measurement the medium of M-1 cells was replaced with Caco-2 transport buffer (Invitrogen, Germany). During measurements, the Ussing chamber temperature was kept at 37° C. Short circuit currents (I_sc) were measured in the voltage-clamp mode with the software package Lab View for data acquisition and analysis. The transepithelial electrical resistance (TEER) was determined by the application of voltage steps of ±5 mV every 5 sec. Compounds were administered at a final concentration of 3 μM or at increasing concentrations (1-3-10 μM) to the apical solution. At the end of each experiment the amiloride sensitive I_SC was measured by adding 3 μM amiloride to the apical compartment. Results are expressed as inhibition in percent of the amiloride effect or as IC50.

Papp A→B at 90 min, 10 μM ([1]; apical-to-basal): 3 nm/s | Papp B→A at 90 min, 10 μM ([1]; basal-to-apical): 2 nm/s | IC50 [2]: 0.013 µM
Structure (SMILES): CCn1c(CNC(=O)c2nc(Cl)c(N)nc2N)[n+](CC(=O)c2ccc(OC)c(OC)c2)c2ccc(OC)cc21.O=C([O-])C(F)(F)F [Example 8.01]

Source: patent US9981954B2, “2-(pyrazin-2-ylcarbonylaminomethyl) benzimidazolium compounds as epithelial sodium channel inhibitors” (Boehringer Ingelheim International GmbH, priority 2015, dated 2018)
